Source: PMC10009108, “Design, synthesis and screening of indole acetic acid-based tri-azo moieties as antioxidants, anti-microbial and cytotoxic agents” (Frontiers in Pharmacology, 2023)
In brackets after ≈: the same amount, converted by molar mass.

How the values were obtained:
[1] = system: Pseudomonas aeruginosa (ATCC-15442); assay: Antibacterial assay, micro broth dilution; assay type: cell-based; details: ATCC15442
Text: (§1) The micro broth dilution method was used to establish the antibacterial potential of test samples against Staphylococcus aureus (ATCC-6538), Bacillus subtilis (ATCC-6633), Escherichia coli (ATCC-25922), Klebsiella pneumoniae (ATCC-1705), and Pseudomonas aeruginosa (ATCC-15442) and for the resistant strains of MRSA Staphylococcus aureus, P. aeruginosa and Escherichia coli. The procedure used is described by ([Sarker et al., 2007]). Bacterial inoculum was formed under aseptic conditions keeping the density near 5 × 10^4 CFU/mL in pre-autoclaved nutrient broth. Test samples of an aliquot of 5 µL were shifted to labeled wells of 96 well plates, and after that addition of 195 µL of nutrient broth; was accomplished. After that, a 2-fold serial dilution of every sample was arranged to get final concentrations of 12.5 μg/mL. Then, with the help of a micropipette, 195 µL of bacterial culture of respective strains was poured into each well; further advancement was incubating of plates for 30 min at the temperature of 37°C. […] Incubation of plates was again carried out at 37°C for 1 day, absorbance was noted, and net change in turbidity was the difference between two values of absorbance.
(§2) Schiff base tri-azo compounds were investigated for antibacterial potential. […] 6.25 μg/mL for 5b and 5g, and the least, Table 4 3.12 μg/mL was for 5f. […] Substituents with electron-withdrawing attributes, e.g., -NO2, -Cl, -OH on the aromatic ring, assert a great impact on the antibacterial activity of synthetic compounds. It is also observed that an increase in the number of -OH groups tend to enhance the activity ([Hosamani and Shingalapur, 2011]). Due to the difference in cell-wall composition of Gram + ve and -ve bacteria, different compounds show different features towards the same micro-organism ([Goszczyn’ska et al., 2015]).

resistant S. aureus = assay: Antibacterial assay, resistant strains; assay type: cell-based, Staphylococcus aureus; set-up: key to Antibacterial activity, resistant S. aureus: Activity: Positive = have anti-bacterial activity; --- = no anti-bacterial activity; details: 25 μg/mL; resistant strain
Text: as §1, §2

resistant P. aeruginosa = assay: Antibacterial assay, resistant strains; assay type: cell-based; set-up: key to Antibacterial activity, resistant P. aeruginosa: Activity: Positive = have anti-bacterial activity; --- = no anti-bacterial activity; details: 25 μg/mL; resistant strain
Text: as §1, §2

[2] = system: Aspergillus niger (FCBP-0198); assay: Antifungal disc diffusion assay; assay type: cell-based; set-up: key to Zone of inhibition, A. niger: --- = no anti-fungal activity; details: 20 μg/disc
Description: (§3) The antifungal response to these chemical moieties was evaluated through a procedure designated by ([Zahra et al., 2017]). Amphotericin B (4 mg/mL DMSO) is used as + ve control and DMSO as-ve one (5 μL/disc). Sterile SDA-coated plates were used, on which 100 µL of suspension of spores for each strain (previously reaped-in-Tween-20 solution) was spread. Discs of sterile filter paper containing 5 µL of sample solution (4 mg/mL DMSO) were kept on plates and incubated for 2 days at 28°C. Zones of inhibition were recorded.
(§4) The Synthetic compound library was subjected to an antifungal assay using five different strains of Fungai, i.e., Fusarium solani (FCBP-0291), Aspergillus fumigatus (FCBP-66), Aspergillus flavus (FCBP-0064), Aspergillus niger (FCBP-0198) and Mucor species (FCBP-0300). Amphotericin B was the standard drug used. […] The outcomes are concise in Table 5.

[3] = system: Aspergillus flavus (FCBP-0064); assay: Antifungal disc diffusion assay; assay type: cell-based; set-up: key to Zone of inhibition, A. flavus: --- = no anti-fungal activity; details: 20 μg/disc
Description: as §3, §4

[4] = system: Aspergillus fumigatus (FCBP-66); assay: Antifungal disc diffusion assay; assay type: cell-based; set-up: key to Zone of inhibition, A. fumigatus: --- = no anti-fungal activity; details: 20 μg/disc
Description: as §3, §4

[5] = system: Streptomyces 85 E strains; assay: Protein kinase inhibition assay; assay type: cell-based; set-up: key: Active = Bacterial activity; --- = no activity; details: Sample Concentration = 20 μg/mL; Surfactin B 20 μg/mL
Description: The protocol followed for this is mentioned ([Fatima et al., 2015]). To assess the test compound’s inhibitory potential, Streptomyces 85 E strains were used, which were refreshed in tryptone soya broth at 37 for 1 day. Spores from refreshed cultures were utilized to prepare the bacterial culture. 100 μg compound was loaded on 5 mm discs of filter paper. These were kept on sowed plates. DMSO-permeated discs were the -ve control. The incubation period was 7 days, and outcomes were stated as bald and clear zones of inhibition.
These synthetic products were evaluated to estimate the inhibitory potential for protein kinase of […] 85 E. Protein kinase is involved with the mycelium production of this species, so the growth patterns were observed as the bald zone. […] One of the propitious targets in cancer treatment is the inhibition of protein kinases. Protein phosphorylation by protein kinases at various residues regulates diverse biological processes, which may include apoptosis, proliferation and differentiation of cells. Deregulation at any step in early tumorigenesis may lead to cancer ([Yao et al., 2011]). Aerial hyphae formation in Streptomyces depends upon protein kinase activity; this scenario is exploited in this test; to inquire about these compounds’ kinase inhibition potential and to look at their anti-cancer potential. The advantage of using Streptomyces for kinase inhibition assay is its predisposition to a wide range of eukaryotic cells. Whole-cell assay of Streptomyces not only identifies the compound’s cytotoxic potential but also identifies signal transduction inhibitors for various activities, e.g., antitumor, anti-mycobacterial, and anti-infective ([Waters et al., 2002]). […] Activity with a bald zone of 10.5 mm and a clear zone of 7.5 mm, following is 5a with a bald zone of 9 mm and a clear zone of 6 mm, and for 5g, values are 7.5 and 6 mm, respectively. It means that these compounds have the potential for protein kinase inhibition as well as the toxicity of the compound.

[6] = system: Klebsiella pneumoniae (ATCC-1705); assay: Antibacterial assay, micro broth dilution; assay type: cell-based; set-up: key: Active = Bacterial activity; --- = no activity; details: 25 μg/mL
[7] = system: Escherichia coli (ATCC-25922); assay: Antibacterial assay, micro broth dilution; assay type: cell-based; details: ATCC25922, read-out: E. coli MIC
Text: as §1, §2

| SMILES | MIC [1] | Antibacterial activity, resistant S. aureus: Activity (resistant S. aureus) | Antibacterial activity, resistant P. aeruginosa: Activity (resistant P. aeruginosa) | Zone of inhibition, A. niger [2] | Zone of inhibition, A. flavus [3] | Zone of inhibition, A. fumigatus [4] | Clear zone [5] | Antibacterial activity, Klebsiella pneumoniae: Activity [6] | MIC [7] |
| --- | --- | --- | --- | --- | --- | --- | --- | --- | --- |
| COc1cccc(C=Nn2c(Cc3c[nH]c4ccccc34)n[nH]c2=S)c1 [Compound 5b] | 12.5 µg/mL (≈ 34.4 µM) | --- | --- | --- | --- | --- | 7.5 mm | Active |  |
| Oc1cccc(C=Nn2c(Cc3c[nH]c4ccccc34)n[nH]c2=S)c1 [Compound 5a] | 12.5 µg/mL (≈ 35.8 µM) |  |  | --- | --- | --- | 6 mm | Active |  |
| O=[N+]([O-])c1ccc(C=Nn2c(Cc3c[nH]c4ccccc34)n[nH]c2=S)cc1 [Compound 5d] |  | --- | --- | --- | --- | --- | --- | Active | 25 µg/mL (≈ 66.1 µM) |
| Oc1ccc(C=Nn2c(Cc3c[nH]c4ccccc34)n[nH]c2=S)cc1 [Compound 5e] | 3.12 µg/mL (≈ 8.93 µM) | --- | --- | --- | --- | --- | --- | Active | 25 µg/mL (≈ 71.5 µM) |
| S=c1[nH]nc(Cc2c[nH]c3ccccc23)n1N=Cc1ccc(Cl)cc1 [Compound 5c] |  | --- | --- | --- | --- | --- | --- | Active | 25 µg/mL (≈ 68 µM) |
| S=c1[nH]nc(Cc2c[nH]c3ccccc23)n1N=Cc1cccc(Cl)c1 [Compound 5f] |  | --- | --- | --- | --- | --- | --- | Active |  |
| COc1cc(C=Nn2c(Cc3c[nH]c4ccccc34)n[nH]c2=S)cc(OC)c1OC [Compound 5g] |  | --- | --- | --- | --- | --- |  | Active |  |
